The values that follow come from patent publication US8883826B2, “Alkynyl derivatives as modulators of metabotropic glutamate receptors” (Addex Pharma SA, priority 2004, dated 2014).

Bounds are passed on as bounds.

The target of the assay is T1, mGluR5 (Rattus norvegicus, UniProt P31424).
T1 construct: tissue Charles River Laboratories; host or cells: rat brain cortex membranes (Sprague-Dawley)
T1 sequence (P31424 21-1203): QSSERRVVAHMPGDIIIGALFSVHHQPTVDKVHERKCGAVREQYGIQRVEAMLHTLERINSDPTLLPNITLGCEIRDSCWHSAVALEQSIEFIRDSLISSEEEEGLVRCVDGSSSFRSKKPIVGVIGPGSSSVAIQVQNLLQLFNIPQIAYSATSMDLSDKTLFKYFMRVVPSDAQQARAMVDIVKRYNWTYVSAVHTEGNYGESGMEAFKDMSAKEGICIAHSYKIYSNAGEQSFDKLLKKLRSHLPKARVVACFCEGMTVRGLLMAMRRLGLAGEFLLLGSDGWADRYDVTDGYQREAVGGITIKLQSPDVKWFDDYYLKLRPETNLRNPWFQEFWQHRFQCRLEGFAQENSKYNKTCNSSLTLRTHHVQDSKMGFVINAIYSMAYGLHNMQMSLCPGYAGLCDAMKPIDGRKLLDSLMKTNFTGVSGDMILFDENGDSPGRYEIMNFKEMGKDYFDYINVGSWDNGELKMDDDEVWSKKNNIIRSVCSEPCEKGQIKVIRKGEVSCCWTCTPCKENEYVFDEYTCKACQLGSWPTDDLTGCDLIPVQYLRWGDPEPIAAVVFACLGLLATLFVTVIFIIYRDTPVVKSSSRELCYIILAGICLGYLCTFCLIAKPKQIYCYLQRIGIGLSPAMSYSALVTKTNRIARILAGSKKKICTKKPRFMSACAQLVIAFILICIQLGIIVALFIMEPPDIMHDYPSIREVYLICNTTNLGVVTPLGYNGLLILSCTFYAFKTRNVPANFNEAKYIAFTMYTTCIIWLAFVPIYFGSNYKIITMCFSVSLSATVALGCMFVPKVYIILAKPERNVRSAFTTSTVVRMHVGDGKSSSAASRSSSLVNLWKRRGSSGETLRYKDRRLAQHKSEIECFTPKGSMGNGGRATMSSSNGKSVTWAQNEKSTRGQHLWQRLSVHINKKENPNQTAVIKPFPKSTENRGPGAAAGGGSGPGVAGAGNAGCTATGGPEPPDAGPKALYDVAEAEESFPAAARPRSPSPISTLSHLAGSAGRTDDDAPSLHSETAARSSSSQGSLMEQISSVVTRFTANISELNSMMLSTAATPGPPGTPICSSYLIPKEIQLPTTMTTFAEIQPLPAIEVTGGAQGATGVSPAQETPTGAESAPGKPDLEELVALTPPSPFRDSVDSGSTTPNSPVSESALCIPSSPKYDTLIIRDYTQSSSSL
Put plainly: mGluR5 binding assay ([3H]-MPEP radioligand competition). Particulars: competition with 3 nM [3H]-MPEP, rat brain cortical membranes, 1 h at 4 °C; mean of at least three independent experiments in duplicate. The source says:
Activity of compounds of the invention was examined following a radioligand binding technique using whole rat brain and tritiated 2-methyl-6-(phenylethynyl)-pyridine ([^3H]-MPEP) as a ligand following similar methods than those described in F. Gasparini et al. Bioorg. Med. Chem. Lett. 2002, 12, 407-409 and in J. F. Anderson et al. J. Pharmacol. Exp. Ther. 2002, 303, 3, 1044-1051.
Cortices were dissected out from brains of 200-300 g Sprague-Dawley rats (Charles River Laboratories, L'Arbresle, France). Tissues were homogenized in 10 volumes (vol/wt) of ice-cold 50 mM Hepes-NaOH (pH 7.4) using a Polytron disrupter (Kinematica AG, Luzern, Switzerland) and centrifuged for 30 min at 40,000 g. (4° C.). The supernatant was discarded and the pellet washed twice by resuspension in 10 volumes 50 mM HEPES-NaOH. Membranes were then collected by centrifugation and washed before final resuspension in 10 volumes of 20 mM HEPES-NaOH, pH 7.4. Protein concentration was determined by the Bradford method (Bio-Rad protein assay, Reinach, Switzerland) with bovine serum albumin as standard.
[^3H]-MPEP Binding Experiments:
Membranes were thawed and resuspended in binding buffer containing 20 mM HEPES-NaOH, 3 mM MgCl2, 3 mM CaCl2, 100 mM NaCl, pH 7.4. Competition studies were carried out by incubating for 1 h at 4° C.: 3 nM [^3H]-MPEP (39 Ci/mmol, Tocris, Cookson Ltd, Bristol, U.K.), 50 μg membrane and a concentration range of 0.003 nM-30 μM of compounds, for a total reaction volume of 300 μl. The non-specific binding was defined using 30 μM MPEP. Reaction was terminated by rapid filtration over glass-fiber filter plates (Unifilter 96-well GF/B filter plates, Perkin-Elmer, Schwerzenbach, Switzerland) using 4×400 μl ice cold buffer using cell harvester (Filtermate, Perkin-Elmer, Downers Grove, USA). Radioactivity was determined by liquid scintillation spectrometry using a 96-well plate reader (TopCount, Perkin-Elmer, Downers Grove, USA).
The inhibition curves were generated using the Prism GraphPad program (Graph Pad Software Inc, San Diego, USA). IC50 determinations were made from data obtained from 8 point-concentration response curves using a non linear regression analysis.
The table below represents the mean of IC50 obtained from at least three independent experiments of selected molecules performed in duplicate.
A general note: Displacement assays read how much labelled ligand stays bound in the presence of the test substance.
Broadly, the IC50 is the concentration at which inhibition is half-maximal. A high value points to lower potency. As for `Cc1cccc2sc(CCC#Cc3ccccn3)nc12` [Example 103, 4-Methyl-2-(4-(pyridin-2-yl)but-3-ynyl)benzo[d]thiazole], the IC50 was less than 50 nM.

`Fc1ccc2sc(CCC#Cc3ccccn3)nc2c1` [Example 104, 5-Fluoro-2-(4-(pyridin-2-yl)but-3-ynyl)benzo[d]thiazole] yielded a concentration for half-maximal inhibition (IC50) of less than 50 nM.

Take `Clc1cccc2sc(CCC#Cc3ccccn3)nc12` [Example 105, 4-Chloro-2-(4-(pyridin-2-yl)but-3-ynyl)benzo[d]thiazole]: the IC50 is less than 50 nM.

For `Cn1c(CCC#Cc2ccccn2)nc2ccccc21` [Example 107, 1-Methyl-2-(4-(pyridin-2-yl)but-3-ynyl)-1H-benzo[d]imidazole], the IC50 was less than 500 nM.

Consider `C(#Cc1ccccn1)CCn1cc2ccccc2n1` [Example 108, 2-(4-(Pyridin-2-yl)but-3-ynyl)-2H-indazole], for which the IC50 was less than 500 nM.

In the case of `C(#Cc1ccccn1)CCn1nc2ccccc2n1` [Example 109, 2-(4-(Pyridin-2-yl)but-3-ynyl)-2H-benzo[d][1,2,3]triazole], the concentration for half-maximal inhibition (IC50) is less than 500 nM.

Consider `C(#Cc1ccccn1)CCc1cc(-c2ccccc2)no1` [Example 111, 2-(4-(3-Phenylisoxazol-5-yl)but-1-ynyl)pyridine], for which the IC50 was less than 10000 nM.

Take `Cc1nc(C#CCCc2nc3ccccc3s2)cs1` [Example 112, 2-(4-(2-Methylthiazol-4-yl)but-3-ynyl)benzo[d]thiazole]: the IC50 is less than 50 nM.

As for `Fc1ccc(C#CCCc2nc3ccccc3s2)nc1` [Example 113, 2-(4-(5-Fluoropyridin-2-yl)but-3-ynyl)benzo[d]thiazole], the concentration for half-maximal inhibition (IC50) was less than 10000 nM.

As for `Cc1cccc(C#CCCc2nc3ccccc3s2)n1` [Example 114, 2-(4-(6-Methylpyridin-2-yl)but-3-ynyl)benzo[d]thiazole], the IC50 was less than 50 nM.

Consider `Fc1ccc(Cl)c2sc(CCC#Cc3ccccn3)nc12` [Example 116, 7-Chloro-4-fluoro-2-(4-(pyridin-2-yl)but-3-ynyl)benzo[d]thiazole], for which the concentration for half-maximal inhibition (IC50) was less than 50 nM.

The compound `Fc1cccc(C#CCCc2nc3ccccc3s2)n1` [Example 117, 2-(4-(6-Fluoropyridin-2-yl)but-3-ynyl)benzo[d]thiazole] came in with an IC50 of less than 10000 nM.

As to `C(#Cc1ccccn1)CCc1ccc2ccccc2n1` [Example 118, 2-(4-(Pyridin-2-yl)but-3-ynyl)quinoline], the IC50 is less than 500 nM.

`Cn1ccc(C#CCCc2nc3ccccc3s2)n1` [Example 121, 2-(4-(1-Methyl-1H-pyrazol-3-yl)but-3-ynyl)benzo[d]thiazole] gave a 50% inhibitory concentration (IC50) of less than 10000 nM.

The compound `C(#Cc1ccccn1)CCn1cc(-c2ccccc2)cn1` [Example 122, 2-(4-(4-Phenyl-1H-pyrazol-1-yl)but-1-ynyl)pyridine] displayed a concentration for half-maximal inhibition (IC50) of less than 10000 nM.

Turning to `Clc1cccc2cn(CCC#Cc3ccccn3)nc12` [Example 123, 7-Chloro-2-(4-(pyridin-2-yl)but-3-ynyl)-2H-indazole], the IC50 was less than 10000 nM.

`C(#Cc1ccccn1)CCCCn1nc2ccccc2n1` [Example 124, 2-(6-(Pyridin-2-yl)hex-5-ynyl)-2H-benzo[d][1,2,3]triazole] came in with an IC50 of less than 10000 nM.

With `Fc1ccc2nn(CCC#Cc3ccccn3)nc2c1` [Example 127, 5-Fluoro-2-(4-(pyridin-2-yl)but-3-ynyl)-2H-benzo[d][1,2,3]triazole], the IC50 was less than 10000 nM.

Compound `Cc1cccc(C#CCCc2ccc3ccccc3n2)n1` [Example 128, 2-(4-(6-Methylpyridin-2-yl)but-3-ynyl)quinoline] returned an IC50 of less than 50 nM.

The compound `FCc1cccc(C#CCCn2cc3ccccc3n2)n1` [Example 133, 2-(4-(6-(Fluoromethyl)pyridin-2-yl)but-3-ynyl)-2H-indazole] showed a 50% inhibitory concentration (IC50) of less than 10000 nM.

For `Fc1cc(F)c2nn(CCC#Cc3ccccn3)nc2c1` [Example 135, 4,6-Difluoro-2-(4-(pyridin-2-yl)but-3-ynyl)-2H-benzo[d][1,2,3]triazole], the half-inhibitory concentration (IC50) is less than 10000 nM.

Compound `Fc1ccc2nn(CCC#Cc3ccccn3)nc2c1F` [Example 136, 4,5-Difluoro-2-(4-(pyridin-2-yl)but-3-ynyl)-2H-benzo[d][1,2,3]triazole] came in with an IC50 of less than 10000 nM.

The compound `Cc1cccc(C#CCCn2nc3ccccc3n2)n1` [Example 137, 2-(4-(6-Methylpyridin-2-yl)but-3-ynyl)-2H-benzo[d][1,2,3]triazole] gave an IC50 of less than 50 nM.

In the case of `Fc1cccnc1C#CCCn1nc2ccccc2n1` [Example 138, 2-(4-(3-Fluoropyridin-2-yl)but-3-ynyl)-2H-benzo[d][1,2,3]triazole], the 50% inhibitory concentration (IC50) is less than 10000 nM.

Regarding `FCc1cccc(C#CCCn2nc3ccc(F)cc3n2)n1` [Example 139, 5-Fluoro-2-(4-(6-(fluoromethyl)pyridin-2-yl)but-3-ynyl)-2H-benzo[d][1,2,3]triazole], the IC50 is less than 50 nM.

With `Fc1ccc(-c2cnn(CCC#Cc3ccccn3)c2)cc1` [Example 140, 2-(4-(4-(4-Fluorophenyl)-1H-pyrazol-1-yl)but-1-ynyl)pyridine], the IC50 was less than 10000 nM.

In the case of `Cc1nc(C#CCCn2nc3ccccc3n2)cs1` [Example 141, 2-(4-(2-Methylthiazol-4-yl)but-3-ynyl)-2H-benzo[d][1,2,3]triazole], the IC50 was less than 50 nM.

With `Cc1ccccc1-c1cnn(CCC#Cc2ccccn2)c1` [Example 142, 2-(4-(4-o-Tolyl-1H-pyrazol-1-yl)but-1-ynyl)pyridine], the 50% inhibitory concentration (IC50) was less than 10000 nM.

Compound `Cc1ccccc1-c1cnn(CCC#Cc2cccc(CF)n2)c1` [Example 143, 2-(Fluoromethyl)-6-(4-(4-o-tolyl-1H-pyrazol-1-yl)but-1-ynyl)pyridine] registered a 50% inhibitory concentration (IC50) of less than 10000 nM.

In turn, `FCc1cccc(C#CCCn2cc(-c3ccc(F)cc3)cn2)n1` [Example 144, 2-(Fluoromethyl)-6-(4-(4-(4-fluorophenyl)-1H-pyrazol-1-yl)but-1-ynyl)pyridine] displayed an IC50 of less than 10000 nM.

Regarding `FCc1cccc(C#CCCc2cnc3cc(F)ccc3n2)n1` [Example 145, 6-Fluoro-2-(4-(6-(fluoromethyl)pyridin-2-yl)but-3-ynyl)quinoxaline], the IC50 was less than 50 nM.

The compound `Clc1cccc2nn(CCC#Cc3ccccn3)nc12` [Example 146, 4-Chloro-2-(4-(pyridin-2-yl)but-3-ynyl)-2H-benzo[d][1,2,3]triazole] came in with an IC50 of less than 50 nM.

As to `FCc1cccc(C#CCCn2nc3cccc(Cl)c3n2)n1` [Example 147, 4-Chloro-2-(4-(6-(fluoromethyl)pyridin-2-yl)but-3-ynyl)-2H-benzo[d][1,2,3]triazole], the IC50 is less than 50 nM.

`FCc1cccc(C#CCCn2cc3c(F)cccc3n2)n1` [Example 149, 4-Fluoro-2-(4-(6-(fluoromethyl)pyridin-2-yl)but-3-ynyl)-2H-indazole] yielded a half-maximal inhibitory concentration (IC50) of less than 50 nM.

Compound `Clc1cccc2nn(CCC#Cc3ccccn3)cc12` [Example 150, 4-Chloro-2-(4-(pyridin-2-yl)but-3-ynyl)-2H-indazole] came in with an IC50 of less than 50 nM.

The compound `FCc1cccc(C#CCCn2cc3ccc(F)cc3n2)n1` [Example 151, 6-Fluoro-2-(4-(6-(fluoromethyl)pyridin-2-yl)but-3-ynyl)-2H-indazole] registered an IC50 of less than 50 nM.

Regarding `FCc1cccc(C#CCCn2cc3c(Cl)cccc3n2)n1` [Example 152, 4-Chloro-2-(4-(6-(fluoromethyl)pyridin-2-yl)but-3-ynyl)-2H-indazole], the half-inhibitory concentration (IC50) is less than 50 nM.

As for `FCc1cccc(C#CCCn2cc3cccc(F)c3n2)n1` [Example 155, 7-Fluoro-2-(4-(6-(fluoromethyl)pyridin-2-yl)but-3-ynyl)-2H-indazole], the half-maximal inhibitory concentration (IC50) was less than 50 nM.

Regarding `Cn1ccc(C#CCCn2nc3cccc(Cl)c3n2)n1` [Example 156, 4-Chloro-2-(4-(1-methyl-1H-pyrazol-3-yl)but-3-ynyl)-2H-benzo[d][1,2,3]triazole], the IC50 is less than 50 nM.

`Nc1cccc(C#CCCn2nc3cc(F)cc(F)c3n2)n1` [Example 157, 6-(4-(4,6-Difluoro-2H-benzo[d][1,2,3]triazol-2-yl)but-1-ynyl)pyridin-2-amine] had an IC50 of less than 10000 nM.

Take `C(#Cc1ccccn1)CCn1ccc(-c2ccccc2)n1` [Example 159, 2-(4-(3-Phenyl-1H-pyrazol-1-yl)but-1-ynyl)pyridine]: the concentration for half-maximal inhibition (IC50) is less than 10000 nM.

The compound `O=[N+]([O-])c1cccc2nn(CCC#Cc3ccccn3)nc12` [Example 160, 4-Nitro-2-(4-(pyridin-2-yl)but-3-ynyl)-2H-benzo[d][1,2,3]triazole] had an IC50 of less than 10000 nM.
